Test results as given in patent US6004966A, “Use of xanthine oxidase inhibitors as anti-ischaemic agents” (BTG International Limited, priority 1994, dated 1999).
Read-outs that look alike come from different tables or passages of the source.

Legend:
bovine xanthine oxidase = bovine xanthine oxidase (Bos taurus, UniProt P80457); test: Further xanthine oxidase inhibition studies, steady-state kinetic analysis (uric acid formation); format: biochemical; details: 37° C.; for manner of xanthine oxidase inhibition: pH 7.4, inhibitors 1-3 μM
Procedure: The study was conducted at 37° C. using 30 mU/ml bovine xanthine oxidase in 50 mM phosphate buffer (ph 7.4). The initial rate of uric acid formation was determined spectrophotometrically (292 nm) in the presence of varying concentrations of xanthine (5, 7.5, 10, 15 and 20 μM) and the inhibitors (1-3 μM). Enzyme-inhibitor dissociation constant (Ki) values were calculated from the apparent 1/Vmax values obtained at different inhibitor concentrations.

xanthine oxidase = xanthine oxidase (Bos taurus, UniProt P80457); test: Xanthine oxidase inhibition assay (superoxide-dependent cytochrome c reduction); format: biochemical; details: for % Inhibition (of initial rate of reaction) / inhibition at 1 µM / inhibition at 5 µM / inhibition at 10 µM / inhibition at 50 µM: n=3; for inhibition at 1 µM / inhibition at 5 µM / inhibition at 10 µM / inhibition at 50 µM: read-out: % Inhibition (of initial rate of reaction); for xanthine oxidase inhibition, result in words: statement under Table 4
Procedure: Superoxide produced from the oxidation of varying concentrations of xanthine to uric acid in the presence of xanthine oxidase (5×10^-3 U/ml) was quantified by the superoxide dismutase inhibitable reduction of […] (10 μM) at 550 nm with respect to time. Enzyme inhibition was determined at varying concentrations of the inhibitors.

[1] = Hydroxyl radical scavenging activity (inhibition of NPG hydroxylation by peroxynitrous acid); details: n=3
Procedure: Antioxidant activity is based on the selective hydroxylation of NPG (N,N'-[5-nitro-1,3-phenylene] bisglutaramide) by hydroxyl radicals produced from peroxynitrous acid (1 mM) by the addition of peroxynitrite stabilised in base to a mixture of NPG (1 mM) and varying concentrations of the anti-ischaemic agents prepared in 0.2M phosphate buffer, pH 7. The solutions were analysed by RP-HPLC. NPS (50 mM), an analogue of NPG, was used as an internal standard. Inhibition of hydroxylation of NPG is a direct measure of the hydroxyl radical scavenging ability of the inhibitors.
Values are expressed as percentage scavenging of the hydroxyl radicals % standard deviation, n=3.

rat hearts = test: Heart ischaemia reperfusion studies (Langendorff perfused rat hearts); design: species or system Wistar rats; details: 150 μM in reperfusion perfusate, after 60 min aerobic perfusion following 50 min ischaemia, ±sem
Procedure: Adult male Wistar rats (240-320 g) were anaesthetised intraperitoneally (i.p.) with sodium pentobarbital (Sagatal; 60 mg/kg and heparinised (100 IU/100 g body weight) through the femoral vein, and the heart excised in cold Krebs buffer. By Langendorff technique, the hearts were perfused at a constant pressure (100 mm H2 O) with Krebs bicarbonate buffer. The study was initiated by 30 min aerobic perfusion followed by a 50 min period of global ischaemia, achieved by clamping perfusion flow into the aorta, and finally by reperfusion over 60 min. A ballon was inserted into the left ventricle and inflated to a left ventricular end diastolic pressure (LVEDP) of 4 mm Hg and used to measure left ventricular developed pressure (LVDP) and heart rate (HR). In addition, the coronary effluent was collected over timed intervals as a measure of coronary flow (CF). Assessment of function was made 20 min after the start of the study and at 10 min intervals thereafter. SL301 treated hearts followed a similar protocol as above except that the drug was present in the reperfusion perfusate following the ischaemic insult.

[2] = Table 1, [Xanthine] = 50 μM, inhibitor 1 μM
[3] = Table 1, [Xanthine] = 50 μM, inhibitor 5 μM
[4] = Table 1, [Xanthine] = 50 μM, inhibitor 10 μM
[5] = Table 1, [Xanthine] = 50 μM, inhibitor 50 μM
[6] = Table 2, [Xanthine] = 25 μM, inhibitor 5 μM
[7] = Table 2, [Xanthine] = 25 μM, inhibitor 10 μM
[8] = Table 2, [Xanthine] = 25 μM, inhibitor 50 μM
[9] = Table 3, [Xanthine] = 25 μM, inhibitor 1 μM
[10] = Table 3, [Xanthine] = 25 μM, inhibitor 5 μM
[11] = Table 3, [Xanthine] = 25 μM, inhibitor 10 μM
[12] = Table 3, [Xanthine] = 25 μM, inhibitor 50 μM
[13] = Table 4, [Xanthine] = 8 μM, inhibitor 1 μM
[14] = Table 4, [Xanthine] = 8 μM, inhibitor 5 μM
[15] = Table 4, [Xanthine] = 8 μM, inhibitor 10 μM
[16] = Table 4, [Xanthine] = 8 μM, inhibitor 50 μM
[17] = Table 2, [Xanthine] = 25 μM, inhibitor 1 μM

bovine xanthine oxidase, sequence (P80457 whole entry): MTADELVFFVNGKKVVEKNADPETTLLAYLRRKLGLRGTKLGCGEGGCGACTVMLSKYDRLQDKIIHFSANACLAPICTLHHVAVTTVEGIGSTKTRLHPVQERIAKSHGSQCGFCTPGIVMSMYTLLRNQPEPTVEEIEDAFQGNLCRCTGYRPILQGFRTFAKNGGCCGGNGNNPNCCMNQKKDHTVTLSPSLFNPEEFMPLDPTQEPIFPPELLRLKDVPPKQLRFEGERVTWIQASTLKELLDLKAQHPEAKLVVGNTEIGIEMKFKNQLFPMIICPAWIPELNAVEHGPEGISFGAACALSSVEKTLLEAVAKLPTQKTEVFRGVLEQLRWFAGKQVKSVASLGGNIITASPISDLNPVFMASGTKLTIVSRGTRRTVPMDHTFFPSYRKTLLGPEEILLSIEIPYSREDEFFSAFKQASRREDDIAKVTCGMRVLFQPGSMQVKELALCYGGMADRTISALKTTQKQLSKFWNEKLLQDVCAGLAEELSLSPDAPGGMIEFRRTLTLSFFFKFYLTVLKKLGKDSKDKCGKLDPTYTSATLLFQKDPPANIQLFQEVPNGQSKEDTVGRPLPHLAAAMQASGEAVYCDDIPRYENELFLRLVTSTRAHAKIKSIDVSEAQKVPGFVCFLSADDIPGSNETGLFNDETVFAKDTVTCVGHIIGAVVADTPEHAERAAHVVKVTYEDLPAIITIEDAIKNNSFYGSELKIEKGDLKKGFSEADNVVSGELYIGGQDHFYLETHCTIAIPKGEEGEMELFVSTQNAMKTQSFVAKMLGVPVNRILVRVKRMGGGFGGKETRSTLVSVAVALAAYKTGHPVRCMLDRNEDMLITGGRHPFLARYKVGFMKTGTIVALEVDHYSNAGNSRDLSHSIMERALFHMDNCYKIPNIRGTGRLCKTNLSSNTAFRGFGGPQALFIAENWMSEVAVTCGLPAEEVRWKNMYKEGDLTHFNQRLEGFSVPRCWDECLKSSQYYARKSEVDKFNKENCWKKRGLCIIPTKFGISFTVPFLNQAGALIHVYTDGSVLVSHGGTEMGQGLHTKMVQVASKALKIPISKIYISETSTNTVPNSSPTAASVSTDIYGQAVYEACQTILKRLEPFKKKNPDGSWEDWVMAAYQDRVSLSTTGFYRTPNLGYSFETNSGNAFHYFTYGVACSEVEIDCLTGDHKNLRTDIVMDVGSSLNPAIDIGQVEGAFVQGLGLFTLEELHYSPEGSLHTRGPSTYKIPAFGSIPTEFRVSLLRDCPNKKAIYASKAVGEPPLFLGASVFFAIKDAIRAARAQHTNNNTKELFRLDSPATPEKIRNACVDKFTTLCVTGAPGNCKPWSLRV
xanthine oxidase, sequence (P80457 whole entry): as above

inhibition at 5 µM (xanthine oxidase; [3]) | inhibition at 10 µM (xanthine oxidase; [4]) | inhibition at 50 µM (xanthine oxidase; [5]) | inhibition at 1 µM (xanthine oxidase; [17]) | inhibition at 5 µM (xanthine oxidase; [6]) | inhibition at 10 µM (xanthine oxidase; [7]) | inhibition at 50 µM (xanthine oxidase; [8]) | inhibition at 5 µM (xanthine oxidase; [10]) | inhibition at 10 µM (xanthine oxidase; [11]) | inhibition at 50 µM (xanthine oxidase; [12]) | inhibition at 1 µM (xanthine oxidase; [13]) | inhibition at 5 µM (xanthine oxidase; [14]) | inhibition at 10 µM (xanthine oxidase; [15]) | inhibition at 50 µM (xanthine oxidase; [16]) | xanthine oxidase inhibition, result in words (xanthine oxidase) | Compound | % Activity (percentage scavenging of the hydroxyl radical) ([1]; Antioxidant Ratio 0.1) | % Activity (percentage scavenging of the hydroxyl radical) ([1]; Antioxidant Ratio 0.5) | % Activity (percentage scavenging of the hydroxyl radical) ([1]; Antioxidant Ratio 1.0) | % Activity (percentage scavenging of the hydroxyl radical) ([1]; Antioxidant Ratio 5.0) | other results
– | – | – | – | – | – | – | – | – | – | – | – | – | – | – | Oc1ncnc2[nH]ncc12 [Allopurinol, allopurinol, reference compound] | – | – | – | – | manner of xanthine oxidase inhibition (bovine xanthine oxidase): competitive; % Inhibition (of initial rate of reaction) (xanthine oxidase; [2]): 13.83%; % Inhibition (of initial rate of reaction) (xanthine oxidase; [3]): 22.90%; % Inhibition (of initial rate of reaction) (xanthine oxidase; [4]): 20.63%; % Inhibition (of initial rate of reaction) (xanthine oxidase; [5]): 59.18%; % Inhibition (of initial rate of reaction) (xanthine oxidase; [6]): 2.41%; % Inhibition (of initial rate of reaction) (xanthine oxidase; [7]): 14.09%; % Inhibition (of initial rate of reaction) (xanthine oxidase; [8]): 58.76%; % Inhibition (of initial rate of reaction) (xanthine oxidase; [9]): 23.88%; % Inhibition (of initial rate of reaction) (xanthine oxidase; [10]): 64.57%; % Inhibition (of initial rate of reaction) (xanthine oxidase; [11]): 44.88%; % Inhibition (of initial rate of reaction) (xanthine oxidase; [12]): 68.50%; % Inhibition (of initial rate of reaction) (xanthine oxidase; [13]): 17.40%; % Inhibition (of initial rate of reaction) (xanthine oxidase; [14]): 29.20%; % Inhibition (of initial rate of reaction) (xanthine oxidase; [15]): 49.85%; % Inhibition (of initial rate of reaction) (xanthine oxidase; [16]): 73.45%
24.8% | 32.3% | 67.4% | 2.26% | 37.3% | 42.4% | 62.4% | 46.1% | 30.8% | 43.6% | 6.06% | 33.3% | 45.5% | 48.5% | – | O=c1[nH]c(=O)c2c[nH]nc2[nH]1 [Oxypurinol, oxypurinol, reference compound] | – | – | – | – | inhibition at 1 µM (xanthine oxidase; [2]): 2.26%; inhibition at 1 µM (xanthine oxidase; [9]): 15.4%
– | – | – | – | – | – | – | – | – | – | – | – | – | – | inactive | O=c1c2cn[nH]c2ncn1O [SL100, 1, hydroxy-6-oxypyrazolo-[3,4-d]-pyrimidine] | 6.56% | 37.70% | 65.58% | 100% | –
– | – | – | – | – | – | – | – | – | – | – | – | – | – | inactive | O=c1[nH]c2[nH]ncc2c(=O)n1O [SL101, 2,6-dioxo-1-hydroxypyrazolo-[3,4-d]-pyrimidine] | 8.25% | 20.96% | 39.71% | 72.79% | –
– | – | – | – | – | – | – | – | – | – | – | – | – | – | inactive | O=c1c2[nH]cnc2ncn1O [SL200, 1-hydroxy-6-oxopurine] | 25.13% | 48.49% | 69.54% | 90.09% | –
– | – | – | – | – | – | – | – | – | – | – | – | – | – | inactive | O=c1[nH]c2[nH]cnc2c(=O)n1O [SL201] | – | – | – | – | –
1.84% | 14.2% | 16% | 13.8% | 9.09% | 16.1% | 34.7% | 5.55% | 11.1% | 27.8% | 6.15% | 12.6% | 19.1% | 38.5% | – | O=c1c2nccnc2ncn1O [SL300, 1-hydroxy-6-oxypyrazino-[2,3-d]-pterine] | – | 6.04% | 26.58% | 68.58% | –
31.8% | 39.6% | 63.2% | 37.1% | 51% | 58% | 72% | 41.7% | 58.3% | 77.8% | 22.3% | 41.8% | 49.8% | 70.9% | – | O=c1[nH]c2nccnc2c(=O)n1O [SL301] | 9.80% | 18.00% | 45.90% | 70.21% | % recovery of pre-ischaemic LVDP (left ventricular developed pressure) (rat hearts; control 41 ± 13): 76 ± 9%; % recovery of pre-ischaemic HR (heart rate) (rat hearts; control 49 ± 13): 90 ± 6%; % recovery of pre-ischaemic CF (coronary flow) (rat hearts; control 83 ± 6): 72 ± 4%; Ki (bovine xanthine oxidase; 30 mU/ml bovine xanthine oxidase, 50 mM phosphate buffer pH 7.4, xanthine 5-20 μM): 700 nM; manner of xanthine oxidase inhibition (bovine xanthine oxidase): competitive; inhibition at 1 µM (xanthine oxidase; [2]): 29.1%; inhibition at 1 µM (xanthine oxidase; [9]): 25%
